These results are taken from US11098058B2, “Bicyclic ketone compounds and methods of use thereof” (Genentech, Inc., priority 2017, dated 2021).

SMILES strings stand for the structures.

In one test the target is human RIP1 kinase domain (2-375) (Homo sapiens (Human), UniProt Q13546). Conditions: RIP1 kinase inhibition, tight-binding apparent Ki; 50 nM enzyme, 50 μM ATP, 2 hours incubation.
human RIP1 kinase domain (2-375), sequence (Q13546 2-375): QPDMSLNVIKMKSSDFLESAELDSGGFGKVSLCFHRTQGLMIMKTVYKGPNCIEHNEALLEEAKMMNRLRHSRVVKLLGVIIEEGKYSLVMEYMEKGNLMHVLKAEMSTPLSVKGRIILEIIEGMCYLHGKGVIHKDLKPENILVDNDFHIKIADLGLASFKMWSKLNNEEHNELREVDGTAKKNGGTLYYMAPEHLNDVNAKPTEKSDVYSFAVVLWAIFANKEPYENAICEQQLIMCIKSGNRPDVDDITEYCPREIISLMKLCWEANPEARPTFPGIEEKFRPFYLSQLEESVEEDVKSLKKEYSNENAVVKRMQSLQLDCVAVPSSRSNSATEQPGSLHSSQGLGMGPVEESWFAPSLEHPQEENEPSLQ
Description: RIP1 Kinase Inhibition Assays (Biochemical Assay)
The ability of the receptor interacting protein kinase (RIPK1) to catalyze the hydrolysis of adenosine-5′-triphosphate (ATP) is monitored using the Transcreener ADP (adenosine-5′-diphosphate) assay (BellBrook Labs). Purified human RIP1 kinase domain (2-375) (50 nM) derived from a baculovirus-infected insect cell expression system is incubated with test compounds for 2 hours in 50 mM Hepes buffer (pH 7.5) containing 30 mM MgCl2, 1 mM dithiothreitol, 50 μM ATP, 0.002% Brij-35, and 0.5% dimethyl sulfoxide (DMSO). […] The tracer bound to the antibody is displaced by the ADP generated during the RIP1K reaction, which causes a decrease in fluorescence polarization that is measured by laser excitation at 633 nm with a FP microplate reader M1000. Fractional activity was plotted against test article concentration. Using Genedata Screener software (Genedata; Basel, Switzerland), the data were fit to the tight-binding apparent inhibition constant (Ki^app) Morrison equation [Williams, J. W. and Morrison, J. F. (1979) The kinetics of reversible tight-binding inhibition. […] The following equation was used to calculate fractional activity and Ki^app:
[formula] where [E]T and [I]T are the total concentrations of active enzyme and test article, respectively.
With `O=C(c1nc2n(n1)[C@H](c1ccccc1)C[C@H]2O)C1CC1` (single isomer, unassigned) [Example 88], the Ki came out at 0.18 µM. Take `O=C(c1nc2n(n1)[C@H](c1ccccc1)C[C@@H]2F)C1C2CC(F)(F)CC21` (single isomer, unassigned) [Example 80]: the Ki was 0.033 µM. The same measure, in the same setting: next, `O=C(c1nc2n(n1)[C@H](c1c(F)ccc(F)c1F)C[C@@H]2F)C1CC1` (single isomer, unassigned) [Example 102]: 0.0036 µM; `O=C(c1cc2n(n1)[C@H](c1ccccc1)C[C@@H]2F)C1CC1` (single isomer, unassigned) [Example 159]: 0.005 µM.

In the case of `O=C(c1nc2n(n1)[C@@H](c1ccccc1)C[C@H]2Cl)C1CC1` (single isomer, unassigned) [Example 115], the Ki was 0.79 µM. On the same count and under the same terms, next, `O=C(c1nc2n(n1)C(c1ccccc1)CCC2)C1CC1` (centres unmarked) [Example 145, cyclopropyl-(5-phenyl-5,6,7,8-tetrahydro-[1,2,4]triazolo[1,5-a]pyridin-2-yl)methanone]: 0.26 µM. The same measure, in the same setting: next, `O=C(c1nc2n(n1)[C@H](c1ccccc1)C[C@@H]2F)C1(CF)CC1` [Example 79, [1-(fluoromethyl)cyclopropyl]-[(5S,7S)-7-fluoro-5-phenyl-6,7-dihydro-5H-pyrrolo[1,2-b][1,2,4]triazol-2-yl]methanone]: 0.0034 µM; `Cn1cc([C@@H]2C[C@H](F)c3nc(C(=O)C4CC4)nn32)cn1` (single isomer, unassigned) [Example 152]: 0.03 µM; `O=C(c1nc2n(n1)[C@H](c1ccccc1)C[C@@H]2F)C1CC2(CC2)C1` (single isomer, unassigned) [Example 76]: 0.0035 µM. Still for that read-out and setting: then `CCC[C@@H]1C[C@H](F)c2nc(C(=O)C3CC3)nn21` (single isomer, unassigned) [Example 93], with 0.041 µM; and `Cn1cc(Cl)c([C@@H]2C[C@@H](F)c3nc(C(=O)C4CC4)nn32)n1` [Example 155, ((5S,7R)-5-(4-chloro-1-methyl-1H-pyrazol-3-yl)-7-fluoro-6,7-dihydro-5H-pyrrolo[1,2-b][1,2,4]triazol-2-yl)(cyclopropyl)methanone], with 0.97 µM. For `O=C(c1nc2n(n1)[C@H](c1ccccc1)C[C@@H]2F)C1(c2ccccn2)CC1` (single isomer, unassigned) [Example 98], the Ki is 0.11 µM. The same measure, in the same setting: then `O=C(c1nc2n(n1)[C@H](c1ccccc1)C[C@@H]2F)[C@@H]1C[C@H]2CC[C@@H]1O2` (single isomer, unassigned) [Example 140], with 0.15 µM. Same read-out and setting: then `O=C(c1nc2n(n1)[C@H](c1ccccc1Cl)CC2)C1CC1` (single isomer, unassigned) [Example 77], with 0.014 µM; and `O=C(c1nc2n(n1)[C@H](c1ccccc1)C[C@@H]2F)C1(CO)CC1` (single isomer, unassigned) [Example 72], with 0.0049 µM.

`O=C(c1nc2n(n1)[C@H](c1cccc(F)c1F)C[C@@H]2F)C1CC1` (single isomer, unassigned) [Example 106]: the Ki is 0.0031 µM. As for `O=C(c1nc2n(n1)[C@H](c1ccc(F)cc1)C[C@@H]2F)C1CC1` (single isomer, unassigned) [Example 85], the Ki worked out at 0.009 µM. Take `O=C(c1nc2n(n1)[C@H](c1ncccc1F)C[C@H]2F)C1CC1` (single isomer, unassigned) [Example 151]: the Ki was determined as 0.23 µM. On the same count and under the same terms, next, `O=C(c1nc2n(n1)[C@H](c1ccccc1)C[C@@H]2F)C1CC12CC2` (single isomer, unassigned) [Example 96]: 0.0036 µM.

`O=C(c1nc2n(n1)[C@H](c1ccccc1)C[C@@H]2Cl)C1CC1` (single isomer, unassigned) [Example 116]: the Ki turned out to be 0.004 µM. As to `O=C(c1nc2n(n1)[C@H](c1ccccc1)C[C@@H]2F)[C@H]1C[C@@H]2CC[C@H]1O2` (single isomer, unassigned) [Example 141], the Ki was found to be 0.009 µM. For the compound `O=C(c1nc2n(n1)[C@H](c1c(F)cccc1F)C[C@@H]2F)C1CC1` (single isomer, unassigned) [Example 94], the Ki is 0.0031 µM. Same read-out and setting: then `O=C(c1nc2n(n1)[C@H](c1cc(F)cc(F)c1F)C[C@@H]2F)C1CC1` (single isomer, unassigned) [Example 107], with 0.0039 µM; and `O=C(c1nc2n(n1)[C@H](c1ccccc1)C[C@@H]2F)C1CC1c1ccccn1` (stereo partly drawn) [Example 74, [2-(2-pyridyl)cyclopropyl]-[(5S,7S)-7-fluoro-5-phenyl-6,7-dihydro-5H-pyrrolo[1,2-b][1,2,4]triazol-2-yl]methanone], with 0.018 µM. For the compound `O=C(c1nc2n(n1)[C@H](c1ccccc1F)C[C@@H]2F)C1CC1` (single isomer, unassigned) [Example 62], the Ki is 0.004 µM.

Regarding `O=C(c1nc2n(n1)[C@H](c1ccccc1)C[C@@H]2O)C1CC1` (single isomer, unassigned) [Example 87], the Ki was 0.013 µM. As for `Cn1cc(Cl)c([C@@H]2C[C@H](F)c3nc(C(=O)C4CC4)nn32)n1` [Example 154, ((5S,7S)-5-(4-chloro-1-methyl-1H-pyrazol-3-yl)-7-fluoro-6,7-dihydro-5H-pyrrolo[1,2-b][1,2,4]triazol-2-yl)(cyclopropyl)methanone], the Ki was found to be 0.032 µM. Still for that read-out and setting: next, `N#CCC1(C(=O)c2nc3n(n2)[C@H](c2ccccc2)C[C@@H]3F)CC1` (single isomer, unassigned) [Example 83]: 0.0037 µM; `O=C(c1nc2n(n1)[C@H](c1ccccc1)C[C@@H]2F)C1CC2C(C1)C2(F)F` (single isomer, unassigned) [Example 82]: 0.01 µM.

The test is the same for the next values; noted with them: tight-binding apparent inhibition constant (Ki app, Morrison equation); 50 nM enzyme, 50 μM ATP, 2 hours incubation.
Turning to `CCC(=O)c1cn2c(n1)C(c1ccccc1)CC2` (centres unmarked) [Example 17, 1-(7-phenyl-6,7-dihydro-5H-pyrrolo[1,2-a]imidazol-2-yl)propan-1-one], the Ki was 0.94 µM.

As to `CC(C)(C)C(=O)c1nc2n(n1)C(c1ccccc1)CC2F` (centres unmarked) [Example 44, 1-(7-fluoro-5-phenyl-6,7-dihydro-5H-pyrrolo[1,2-b][1,2,4]triazol-2-yl)-2,2-dimethyl-propan-1-one], the Ki worked out at 0.0115 µM. Take `CC1(C(=O)c2nc3n(n2)[C@H](c2ccccc2)C[C@@H]3F)COC1` (single isomer, unassigned) [Example 54]: the Ki is 0.028 µM. On to `CCC(=O)c1cc2n(n1)C(c1ccccc1)CC2` (centres unmarked) [Example 19, 1-(6-phenyl-5,6-dihydro-4H-pyrrolo[1,2-b]pyrazol-2-yl)propan-1-one], for which the Ki worked out at 0.0442 µM. Still for that read-out and setting: next, `CCC(=O)c1cc2n(n1)CC[C@@H]2c1ccccc1` (single isomer, unassigned) [Example 24]: > 10 µM; `CCC(=O)c1cc2n(n1)CC[C@H]2c1ccccc1` (single isomer, unassigned) [Example 23]: 2.18 µM.
